Data published in US6803374B2, “Compounds useful for treating hepatitis C virus” (priority 2001, dated 2004).

Biological target: T1, HCV NS5B RdRp genotype 1b (Hepatitis C virus genotype 1b, UniProt Q9WMX2)
T1 construct: The protein was expressed with an 18 amino acid C-terminal truncation to enhance the solubility; made in house; host or cells: E. coli BL21(DE3)
Assay: HCV NS5B RdRp enzyme assay
Format: biochemical
Conditions: IC50, HCV RdRp genotype 1b enzyme, C-terminal 18 aa truncated; average of single point IC50 values
Description: HCV NS5B RdRp cloning, expression and purification. The cDNA encoding the NS5B protein of HCV, genotype 1b, was cloned into the pET21a expression vector. The protein was expressed with an 18 amino acid C-terminal truncation to enhance the solubility. The E. coli competent cell line BL21(DE3) was used for expression of the protein. Cultures were grown at 37° C. for ˜4 hours until the cultures reached an optical density of 2.0 at 600 nm. The cultures were cooled to 20° C. and induced with 1 mM IPTG. Fresh ampicillin was added to a final concentration of 50 ug/ml and the cells were grown overnight at 20° C.
Cell pellets (3L) were lysed for purification to yield 15-24 mgs of purified NS5B. The lysis buffer consisted of 20 mM Tris-HCl, pH 7.4, 500 mM NaCl, 0.5% triton X-100, 1 mM DTT, 1 mM EDTA, 20% glycerol, 0.5 mg/ml lysozyme, 10 mM MgCl2, 15 ug/ml deoxyribonuclease I, and Complete TM protease inhibitor tablets (Roche). After addition of the lysis buffer, frozen cell pellets were resuspended using a tissue homogenizer. To reduce the viscosity of the sample, aliquots of the lysate were sonicated on ice using a microtip attached to a Branson sonicator. The sonicated lysate was centrifuged at 100,000×g for 1 hr at 4° C. and filtered through a 0.2 μm filter unit (Corning).
The protein was purified using three sequential chromatography steps: Heparin sepharose CL-6B, polyU sepharose 4B, and Hitrap SP sepharose (Pharmacia). The chromatography buffers were identical to the lysis buffer but contained no lysozyme, deoxyribonuclease I, MgCl2 or protease inhibitor and the NaCl concentration of the buffer was adjusted according to the requirements for charging the protein onto the column. Each column was eluted with a NaCl gradient which varied in length from 5-50 column volumes depending on the column type. After the final chromatography step, the resulting purity of the enzyme is >90% based on SDS-PAGE analysis. The enzyme was aliquoted and stored at −80° C.
HCV NS5B RdRp enzyme assay. HCV RdRp genotype 1b assays were run in assay buffer composed of 20 mM Tris-HCl, pH 7.5, 2.5 mM KCl, 5 mM MgCl2, 1 mM DTT, 1.6 U RNAse inhibitor (Promega N2515), in 96 well plates (Falcon 3918). All compounds were serially diluted in DMSO and diluted further in assay buffer such that the final concentration of DMSO in the assay was 2%. Compounds were serially diluted (3-fold each time) for a 7 point inhibition analysis. HCV RdRp genotype 1b enzyme was used at a final concentration of 28 nM. A polyA template was used at 28 nM, and the oligo-dT12-18 primer was used at 840 nM final concentration. Preannealed primer and template were obtained commercially (Amersham 27-787802). ^3H-UTP was used at 0.125 μCi (1 μM total UTP). Reaction was initiated by the addition of enzyme. Reactions were incubated at 30° C. for 45 min, and stopped by adding 30 ul of 20% ice cold TCA. Plates were chilled for 30 minutes and harvested onto Unifilter-96, GF/B plates (Packard, 6005177) using a Packard FilterMate Cell Harvester. The harvest plates were prewashed 3 times, 200 ul/well, with 100 mM NaPPi. Harvested filters were washed 30 times, 200 ul/well, with distilled water followed by ethanol. Filter plates were dried, and 30 ul/well microscint-20 was added. Plates were read on a Packard Top Count NXT.
The IC50 values for compounds were determined using […] different [I], combined with 7 nM enzyme, 800 ng of the template-primer polyC/oligoG12 (1:5 molar ratio), and 0.7 uM of ^3H GTP containing 1 uCi. The observed fractional activity (fa=vi/vo) was used in the equation IC50=[I]/(1/fa-1) to determine a single point IC50 value. Typically, the single point IC50 values derived from [I] that produced fractional activities in the range of 0.1 to 0.8 relative to the uninhibited control were averaged to calculate the IC50 value for each compound.

T1 sequence (Q9WMX2 2420-2992): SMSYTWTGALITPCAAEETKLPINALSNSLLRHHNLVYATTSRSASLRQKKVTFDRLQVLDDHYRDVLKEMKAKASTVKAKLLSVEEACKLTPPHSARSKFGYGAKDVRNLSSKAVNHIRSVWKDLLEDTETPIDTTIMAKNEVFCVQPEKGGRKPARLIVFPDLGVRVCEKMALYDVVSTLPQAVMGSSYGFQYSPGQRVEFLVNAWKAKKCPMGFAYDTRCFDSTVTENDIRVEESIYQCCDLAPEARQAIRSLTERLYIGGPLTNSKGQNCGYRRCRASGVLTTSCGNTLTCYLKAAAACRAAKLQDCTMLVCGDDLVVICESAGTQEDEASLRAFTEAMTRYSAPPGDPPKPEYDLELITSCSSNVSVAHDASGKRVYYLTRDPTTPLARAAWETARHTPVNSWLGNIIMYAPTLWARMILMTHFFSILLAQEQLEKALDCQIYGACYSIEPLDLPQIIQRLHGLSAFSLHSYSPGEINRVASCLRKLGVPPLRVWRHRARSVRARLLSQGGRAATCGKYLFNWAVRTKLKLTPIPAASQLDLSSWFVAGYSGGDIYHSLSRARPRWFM

SMILES | IC50
CSc1ccc(-c2ccc(C(=O)O)cc2COc2ccc(-c3nc4cc(-c5nnn[nH]5)ccc4n3C3CCCCC3)cc2)cc1 [Example 26] | 190 nM
CC(C)(C)OC(=O)C(Cc1ccc(O)cc1)NC(=O)c1ccc(-c2ccsc2)c(COc2ccc(-c3nc4cc(-c5nnn[nH]5)ccc4n3C3CCCCC3)cc2)c1 (centres unmarked) [Example 140] | 2150 nM
CN1CCN(C(=O)c2ccc(-c3cccc(O)c3)c(COc3ccc(-c4nc5cc(-c6nnn[nH]6)ccc5n4C4CCCCC4)cc3)c2)CC1 [Example 64] | 1200 nM
O=C(O)c1ccc(-c2cc3ccccc3s2)c(COc2ccc(-c3nc4cc(-c5nnn[nH]5)ccc4n3C3CCCCC3)cc2)c1 [Example 119] | 30 nM
COc1ccc(-c2ccc(C(=O)O)cc2COc2ccc(-c3nc4cc(-c5nnn[nH]5)ccc4n3C3CCCCC3)cc2)cc1 [Example 25] | 40 nM
CC(=O)c1ccc(-c2ccc(C(=O)O)cc2COc2ccc(-c3nc4cc(-c5nnn[nH]5)ccc4n3C3CCCCC3)cc2)s1 [Example 120] | 20 nM
CC(NC(=O)c1ccc(-c2ccc(F)c(Cl)c2)c(COc2ccc(-c3nc4cc(-c5nnn[nH]5)ccc4n3C3CCCCC3)cc2)c1)C(=O)OC(C)(C)C (centres unmarked) [Example 82] | 1300 nM
COc1ccc(-c2ccc(C(=O)NC(C)C(=O)OC(C)(C)C)cc2COc2ccc(-c3nc4cc(-c5nnn[nH]5)ccc4n3C3CCCCC3)cc2)cc1OC (centres unmarked) [Example 94] | 2100 nM
O=C(c1ccc(-c2ccsc2)c(COc2ccc(-c3nc4cc(-c5nnn[nH]5)ccc4n3C3CCCCC3)cc2)c1)N1CCC(O)CC1 [Example 137] | 1300 nM
O=C(O)c1ccc(-c2ccsc2)c(COc2ccc(-c3nc4cc(-c5nnn[nH]5)ccc4n3C3CCCCC3)cc2)c1 [Example 115] | 40 nM
CN1CCN(C(=O)c2ccc(-c3ccsc3)c(COc3ccc(-c4nc5cc(-c6nnn[nH]6)ccc5n4C4CCCCC4)cc3)c2)CC1 [Example 132] | 830 nM
O=C(NC(Cc1ccc(O)cc1)C(=O)O)c1ccc(-c2ccc(F)c(Cl)c2)c(COc2ccc(-c3nc4cc(-c5nnn[nH]5)ccc4n3C3CCCCC3)cc2)c1 (centres unmarked) [Example 57] | 180 nM
NC(=O)CCNC(=O)c1ccc(-c2ccc(F)c(Cl)c2)c(COc2ccc(-c3nc4cc(-c5nnn[nH]5)ccc4n3C3CCCCC3)cc2)c1 [Example 59] | 920 nM
O=C(O)CC(=O)NS(=O)(=O)c1ccc2c(c1)nc(-c1ccc(OCc3ccccc3)cc1)n2C1CCCCC1 [Example 20, 3-[2-(4-Benzyloxy-phenyl)-1-cyclohexyl-1H-benzoimidazole-5-sulfonylamino]-3-oxo-propionic acid] | 8200 nM
O=C(O)c1ccc(-c2cccc(O)c2)c(COc2ccc(-c3nc4cc(-c5nnn[nH]5)ccc4n3C3CCCCC3)cc2)c1 [Example 33] | 40 nM
O=C(O)c1ccc(-c2ccc3c(c2)OCO3)c(COc2ccc(-c3nc4cc(-c5nnn[nH]5)ccc4n3C3CCCCC3)cc2)c1 [Example 118] | 70 nM
CC(C)(C)OC(=O)CNC(=O)c1ccc(-c2ccc(F)c(Cl)c2)c(COc2ccc(-c3nc4cc(-c5nnn[nH]5)ccc4n3C3CCCCC3)cc2)c1 [Example 84] | 1200 nM
CNC(=O)c1ccc(-c2cccc(O)c2)c(COc2ccc(-c3nc4cc(-c5nnn[nH]5)ccc4n3C3CCCCC3)cc2)c1 [Example 68] | 540 nM
O=C(c1ccc(-c2cccc(O)c2)c(COc2ccc(-c3nc4cc(-c5nnn[nH]5)ccc4n3C3CCCCC3)cc2)c1)N1CCOCC1 [Example 65] | 1700 nM
NC(=O)CCNC(=O)c1ccc(-c2ccsc2)c(COc2ccc(-c3nc4cc(-c5nnn[nH]5)ccc4n3C3CCCCC3)cc2)c1 [Example 131] | 230 nM
O=C(O)c1ccc(-c2ccc([N+](=O)[O-])cc2)c(COc2ccc(-c3nc4cc(-c5nnn[nH]5)ccc4n3C3CCCCC3)cc2)c1 [Example 41] | 50 nM
O=C(O)c1ccc(-c2cccs2)c(COc2ccc(-c3nc4cc(-c5nnn[nH]5)ccc4n3C3CCCCC3)cc2)c1 [Example 114] | 70 nM
COc1ccc(-c2ccc(C(=O)NCCC(N)=O)cc2COc2ccc(-c3nc4cc(-c5nnn[nH]5)ccc4n3C3CCCCC3)cc2)cc1OC [Example 63] | 150 nM
